Conditions: corona discharge, 20 kV
Text: Ionized air particles around the needle were accelerated and bombard towards the sample surface, causing electric field across the substrate. […] Later, the samples (n=5 for each group) were positioned on an anti-static mat (Bertech, 1059-2X3BKT) to increase the accuracy of the measurement. The voltmeter was grounded and was held 5 mm from the sample surface.
The particles 130, 190 were placed on a ground plate and a high voltage (20 kV) was applied between the plate and the top positive nozzle.

SMILES: NCC(=O)O [glycine particles, glycine]
- charge accumulation rate and surface charge density after poling: considerably higher than those before poling
